# Laboratory results: PubChem BioAssay AID2060614 (Molecular Pharmacology Branch, DTP, NCI, 2025)
# pIC50: −log10 of the molar value. Where “and” joins values, the source holds several entries; their conditions need not be identical. Identical values can stand only once.
# Test system: 598228-144-R-J1-PDC complex spheroids, viability
# Experiment: Anticancer human tumor 598228-144-R-J1-PDC patient-derived serous endometrial adenocarcinoma cell line growth inhibition [CLK]
# Conditions: for viability, T/C: stronger effect = lower value
# Outline: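 Patient-derived tumor cells grown as complex spheroids with HUVEC endothelial cells and mesenchymal stem cells, treated with drug combinations. Concentrations descend in half-log steps from near clinical Cmax, or from 10 microM if Cmax unknown.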
# [1] = curve of first compound, second compound 0.0316 µM
# [2] = curve of first compound, second compound 0.1 µM
# [3] = curve of first compound, second compound 0.316 µM
# [4] = curve of first compound, second compound 1 µM
# [5] = curve of first compound, second compound 3.16 µM
# [6] = curve of first compound, second compound 10 µM
# 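Note: spheroids exposed to compounds for seven days before readout.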
# 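Throughout, for viability, T/C: 100% = DMSO vehicle control wells.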
smiles,measurement,setting,value
CCCS(=O)(=O)Nc1ccc(F)c(C(=O)c2c[nH]c3ncc(-c4ccc(Cl)cc4)cc23)c1F + CNC(=O)c1ccc(Nc2nc(OC3CCCC3)c3c(-c4ccc5nc(C)oc5c4)c[nH]c3n2)c(OC)c1,pIC50,[1],5.00
same,pIC50,[2],< 5.00
same,pIC50,[3],5.02
same,pIC50,[4],< 5.00
same,pIC50,[5],< 5.00
same,pIC50,[6],5.04
same,"viability, T/C","second compound 0.0316 µM, first compound 0.0316 µM",117%
same,"viability, T/C","second compound 0.0316 µM, first compound 0.1 µM",104%
same,"viability, T/C","second compound 0.0316 µM, first compound 0.316 µM",113%
same,"viability, T/C","second compound 0.0316 µM, first compound 1 µM",105%
same,"viability, T/C","second compound 0.0316 µM, first compound 3.16 µM",93.5%
same,"viability, T/C","second compound 0.0316 µM, first compound 10 µM",49.5%
same,"viability, T/C","second compound 0.1 µM, first compound 0.0316 µM",102%
same,"viability, T/C","second compound 0.1 µM, first compound 0.1 µM",101%
same,"viability, T/C","second compound 0.1 µM, first compound 0.316 µM",102%
same,"viability, T/C","second compound 0.1 µM, first compound 1 µM",111%
same,"viability, T/C","second compound 0.1 µM, first compound 3.16 µM",115%
same,"viability, T/C","second compound 0.1 µM, first compound 10 µM",51.6%
same,"viability, T/C","second compound 0.316 µM, first compound 0.0316 µM",99.4%
same,"viability, T/C","second compound 0.316 µM, first compound 0.1 µM",105%
same,"viability, T/C","second compound 0.316 µM, first compound 0.316 µM",87.2%
same,"viability, T/C","second compound 0.316 µM, first compound 1 µM",100%
same,"viability, T/C","second compound 0.316 µM, first compound 3.16 µM",83.5%
same,"viability, T/C","second compound 0.316 µM, first compound 10 µM",48.6%
same,"viability, T/C","second compound 1 µM, first compound 0.0316 µM",96.5%
same,"viability, T/C","second compound 1 µM, first compound 0.1 µM",104%
same,"viability, T/C","second compound 1 µM, first compound 0.316 µM",94.8%
same,"viability, T/C","second compound 1 µM, first compound 1 µM",99.3%
same,"viability, T/C","second compound 1 µM, first compound 3.16 µM",88.4%
same,"viability, T/C","second compound 1 µM, first compound 10 µM",57.1%
same,"viability, T/C","second compound 3.16 µM, first compound 0.0316 µM",86.7%
same,"viability, T/C","second compound 3.16 µM, first compound 0.1 µM",83.9%
same,"viability, T/C","second compound 3.16 µM, first compound 0.316 µM",91.7%
same,"viability, T/C","second compound 3.16 µM, first compound 1 µM",102%
same,"viability, T/C","second compound 3.16 µM, first compound 3.16 µM",83.3%
same,"viability, T/C","second compound 3.16 µM, first compound 10 µM",55%
same,"viability, T/C","second compound 10 µM, first compound 0.0316 µM",89%
same,"viability, T/C","second compound 10 µM, first compound 0.1 µM",82.5%
same,"viability, T/C","second compound 10 µM, first compound 0.316 µM",92.5%
same,"viability, T/C","second compound 10 µM, first compound 1 µM",99.6%
same,"viability, T/C","second compound 10 µM, first compound 3.16 µM",67.5%
same,"viability, T/C","second compound 10 µM, first compound 10 µM",48.4%
C#Cc1c(F)ccc2cc(O)cc(-c3ncc4c(N5CC6CCC(C5)N6)nc(OCC56CCCN5CC(F)C6)nc4c3F)c12 (stereo not drawn),"viability, T/C",compound 0.0316 µM,99.8% and 98.6%
same,"viability, T/C",compound 0.1 µM,101% and 103%
same,"viability, T/C",compound 0.316 µM,108% and 112%
same,"viability, T/C",compound 1 µM,103% and 100%
same,"viability, T/C",compound 3.16 µM,102% and 103%
same,"viability, T/C",compound 10 µM,97.9% and 102%
same,pIC50,curve of compound,< 5.00
NC(=O)C(=Cn1cnc(-c2cc(C(F)(F)F)cc(C(F)(F)F)c2)n1)c1cncnc1 + CNC(=O)c1ccc(Nc2nc(OC3CCCC3)c3c(-c4ccc5nc(C)oc5c4)c[nH]c3n2)c(OC)c1,pIC50,[1],6.44
same,pIC50,[2],6.28
same,pIC50,[3],6.19
same,pIC50,[4],6.33
same,pIC50,[5],6.52
same,pIC50,[6],6.80
same,"viability, T/C","second compound 0.0316 µM, first compound 0.00949 µM",110%
same,"viability, T/C","second compound 0.0316 µM, first compound 0.03 µM",97.5%
same,"viability, T/C","second compound 0.0316 µM, first compound 0.0949 µM",93.9%
same,"viability, T/C","second compound 0.0316 µM, first compound 0.3 µM",53.3%
same,"viability, T/C","second compound 0.0316 µM, first compound 0.949 µM",30.1%
same,"viability, T/C","second compound 0.0316 µM, first compound 3 µM",25.7%
same,"viability, T/C","second compound 0.1 µM, first compound 0.00949 µM",101%
same,"viability, T/C","second compound 0.1 µM, first compound 0.03 µM",99.8%
same,"viability, T/C","second compound 0.1 µM, first compound 0.0949 µM",97.9%
same,"viability, T/C","second compound 0.1 µM, first compound 0.3 µM",63.8%
same,"viability, T/C","second compound 0.1 µM, first compound 0.949 µM",36.4%
same,"viability, T/C","second compound 0.1 µM, first compound 3 µM",28.7%
same,"viability, T/C","second compound 0.316 µM, first compound 0.00949 µM",88.1%
same,"viability, T/C","second compound 0.316 µM, first compound 0.03 µM",95.9%
same,"viability, T/C","second compound 0.316 µM, first compound 0.0949 µM",82.3%
same,"viability, T/C","second compound 0.316 µM, first compound 0.3 µM",64%
same,"viability, T/C","second compound 0.316 µM, first compound 0.949 µM",43.5%
same,"viability, T/C","second compound 0.316 µM, first compound 3 µM",18.2%
same,"viability, T/C","second compound 1 µM, first compound 0.00949 µM",97.5%
same,"viability, T/C","second compound 1 µM, first compound 0.03 µM",97.3%
same,"viability, T/C","second compound 1 µM, first compound 0.0949 µM",85%
same,"viability, T/C","second compound 1 µM, first compound 0.3 µM",55.4%
same,"viability, T/C","second compound 1 µM, first compound 0.949 µM",37.1%
same,"viability, T/C","second compound 1 µM, first compound 3 µM",10.4%
same,"viability, T/C","second compound 3.16 µM, first compound 0.00949 µM",96.8%
same,"viability, T/C","second compound 3.16 µM, first compound 0.03 µM",73.6%
same,"viability, T/C","second compound 3.16 µM, first compound 0.0949 µM",68.2%
same,"viability, T/C","second compound 3.16 µM, first compound 0.3 µM",54.3%
same,"viability, T/C","second compound 3.16 µM, first compound 0.949 µM",30%
same,"viability, T/C","second compound 3.16 µM, first compound 3 µM",10.9%
same,"viability, T/C","second compound 10 µM, first compound 0.00949 µM",88.1%
same,"viability, T/C","second compound 10 µM, first compound 0.03 µM",72.3%
same,"viability, T/C","second compound 10 µM, first compound 0.0949 µM",58.7%
same,"viability, T/C","second compound 10 µM, first compound 0.3 µM",42%
same,"viability, T/C","second compound 10 µM, first compound 0.949 µM",19.6%
same,"viability, T/C","second compound 10 µM, first compound 3 µM",4.93%
CCCS(=O)(=O)Nc1ccc(F)c(C(=O)c2c[nH]c3ncc(-c4ccc(Cl)cc4)cc23)c1F,"viability, T/C",compound 0.0316 µM,95.3% and 98.7%
same,"viability, T/C",compound 0.1 µM,119% and 92.2%
same,"viability, T/C",compound 0.316 µM,92.5% and 90.5%
same,"viability, T/C",compound 1 µM,106% and 90.1%
same,"viability, T/C",compound 3.16 µM,89.6% and 81.8%
same,"viability, T/C",compound 10 µM,55.9% and 44.1%
same,pIC50,curve of compound,< 5.00 and 5.08
